For 95 compounds, AC26 results are on record in PubChem BioAssay AID624491 (Broad Institute, 2012).

Activity calls are given as the source filed them.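 The calls were made as follows: active = fitted curve crossing a set activation limit at or below the highest valid dose tested; inconclusive = flat fit at 30 to 70% activation, or poor fit; inactive = the rest, including signal decreases.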

In the experiment the test system is D54 ERlucT glycosylation luciferase reporter, luminescence, 24 h. In words: blockers of NLG process in reporter cells – D54 ERlucT cells, luminescence, cherry-picks, dose response (AID 624491).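 Also: signal gain reflects blocked N-linked glycosylation of a luciferase reporter; actives raise luciferase signal so AC26 marks activators of the reporter.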
Regarding `COc1cc2nc(N(C)C)nc(N)c2cc1OC`, the AC26 is 3660 nM.

On to `COc1ccc(CCn2c(=N)c(C(=O)NCc3ccco3)cc3c(=O)n4ccccc4nc32)cc1OC`, for which the AC26 is 6410 nM. The figure for `N#Cc1c(NCCN)nc(-c2ccco2)c2c1CCCC2` is 1730 nM; for `COc1cc2c(cc1OC)C(c1cc(Br)ccc1F)N(C(=O)CCl)CC2` (stereo not given) it is 2280 nM; for `CCc1nc2ccc(C(=O)NCCc3c[nH]c4ccccc34)cn2c1N(C=O)CCC(C)C` it is 343 nM. The same measure for `Cc1ccc(C(=O)N/C(=C/c2ccco2)C(=O)NCCc2c[nH]c3ccccc23)cc1`: 2670 nM; for `COc1ccc(/C=N/NC(=O)c2nc(-c3ccccc3)cc(-c3ccccc3)n2)cc1O`: 685 nM; for `CCN(CC(=O)Nc1ccccc1-c1ccccc1)Cc1nc2ccccc2c(=O)[nH]1`: 1470 nM.

As for `COc1cc(-c2cnc3c(NC(C)=O)cc(-c4ccccc4CN(C)C)cn23)cc(OC)c1OC`, the AC26 is 2650 nM. Turning to `CCC(C)C(=O)OC1CCC=C2C=CC(C)C(CCC3CC(O)CC(=O)O3)C21` (stereo not given), the AC26 is 34.8 nM. On to `COc1ccc2[nH]c(C(=O)N3CCN(Cc4ccccc4)CC3)cc2c1OC`, for which the AC26 was 1130 nM. As for `COCCNC(=O)c1cc(-c2cccs2)on1`, the AC26 was 4600 nM. The figure for `CCn1c(=O)cc(SCC(=O)NCCCN2CCN(c3ccc(F)cc3)CC2)c2ccccc21` is 9830 nM; for `COc1ccc(OC)c(Nc2ncnc3c2cnn3-c2cccc(C)c2)c1` it is 3240 nM.

Consider `CCOc1ccc(S(=O)(=O)NCc2ccccn2)cc1NC(=O)c1ccccc1F`, for which the AC26 was 593 nM. The figure for `CCN(CC)c1ccc(/C=N/NC(=O)c2cnccn2)cc1` is 780 nM.

Regarding `COc1cc(OC)c(N2CC(C(=O)Nc3cc(Cl)ccc3N3CCOCC3)CC2=O)cc1Cl` (stereo not given), the AC26 was 3310 nM. The figure for `CC=Cc1cc2c(c(=O)o1)C(=O)C(O)C(C)O2` (stereo not given) is 5300 nM; for `COc1ccccc1N1CCN(C(=O)c2oc3ccccc3c2C)CC1` it is 8000 nM. The figure for `COc1ccc(NC(=O)C2(C)Cc3c(-c4cccc(NC(C)=O)c4)ccnc3O2)cn1` (stereo not given) is 10100 nM; for `COc1ccc(S(=O)(=O)NCc2ccccn2)cc1NC(=O)c1ccccc1` it is 234 nM; for `COc1ccc2c(c1)[C@H]1[C@H](CO2)[C@H](c2ccccc2)[C@]2(C)C(=O)Nc3ccc(Br)cc3C(=O)N12` it is 188 nM. The same measure for `COc1ccc(-c2ccc(C(c3c(C)[nH][nH]c3=O)c3c(C)[nH][nH]c3=O)o2)c([N+](=O)[O-])c1`: 224 nM; for `Cn1nc(C(=O)Nc2cccc(S(=O)(=O)N3CCCCC3)c2)c2ccccc2c1=O`: 284 nM. In the case of `Cc1ccc(Nc2nc(-c3sc(C)nc3C)cs2)cc1`, the AC26 was 481 nM.

In the case of `Cc1cc(NCCN2CCOCC2)c2ccc3ccccc3c2n1`, the AC26 is 3590 nM.

Take `CNc1ccc(Br)cc(C(=O)/C=C/c2ccc(OC)cc2)c1=O`: the AC26 is 2660 nM. On to `COc1ccc(C(=O)N/N=C/C23CC[C@@H](O)CC2(O)CC[C@@H]2[C@@H]3CCC3(C)C(C4=CC(=O)OC4)CCC23O)cc1` (stereo not given in full), for which the AC26 is 5710 nM. In the case of `COc1cc2c(cc1OC)CN(c1ccc(-c3ccccc3OC)nn1)CC2`, the AC26 was 3380 nM. In the case of `Nc1sc(-c2ccccc2)cc1-c1n[nH]c(=S)n1C1CCCCC1`, the AC26 is 10700 nM. Consider `O=C(CC1Nc2ccccc2NC1=O)Nc1ccccc1` (stereo not given), for which the AC26 was 4880 nM. In the case of `COc1ccc2cc(CN(CC3CCCO3)C(=O)Nc3ccccc3OC)c(=O)[nH]c2c1` (stereo not given), the AC26 was 4020 nM. In the case of `CCOc1ccc2[nH]c(C(=O)N/N=C/c3cc(OC)c(OC)c(OC)c3)cc2c1`, the AC26 is 1320 nM. Consider `Cc1ccc2cc(CN(CCCN(C)C)C(=O)NCc3ccccc3)c(=O)[nH]c2c1C`, for which the AC26 was 69.1 nM. The same measure for `CC(=O)c1c(C)[nH]c(C(=O)Nc2cccc(S(=O)(=O)N3CCCC3)c2)c1C`: 2610 nM; for `O=C(Nc1cccc(NC(=O)c2cccs2)c1)c1ccc([N+](=O)[O-])o1`: 1820 nM.

On to `CCC(CC)Nc1ccc(C(CC(N)=O)NC(=O)Cc2ccc(Br)cc2)cc1[N+](=O)[O-]` (stereo not given), for which the AC26 was 4130 nM. The figure for `O=C(N/N=C/c1cccnc1)c1cc(-c2ccccc2OCc2ccccc2)n[nH]1` is 1890 nM; for `CC(C)OCC(O)CN1CCN(CCN2C(=O)c3cccc4cccc(c34)C2=O)CC1` (stereo not given) it is 7110 nM.

Take `COc1cc2c(cc1OC)C(c1ccccc1)N(C(=O)c1ccccc1)CC2` (stereo not given): the AC26 is 869 nM. As to `COc1ccc(S(=O)(=O)Nc2ccc3c(c2)n(C)c(=O)n3C)cc1C`, the AC26 was 9910 nM.

For `COc1cccc(-c2nn(-c3ccccc3)cc2/C=C\C(=O)c2cccs2)c1`, the AC26 is 1360 nM. The same measure for `CN(C)CCCNc1c2c(nc3ccccc13)CCC2`: 9560 nM; for `O=C(/C=C/c1ccco1)Nc1nnc(-c2ccco2)s1`: 310 nM. The figure for `CCOc1ccccc1C(=O)Nc1ccsc1C(=O)OC` is 1300 nM; for `COc1ccc([C@@H]2[C@@H]3C(=O)N(C(C)(C)C)C(=O)[C@@H]3[C@]3(Cc4ccccc4)C(=O)N(c4cccc(C)c4)C(=O)N23)cc1` it is 1300 nM; for `CC1CN(C(=O)c2ccc(COc3ccc4ccccc4c3)o2)CC(C)O1` (stereo not given) it is 11200 nM. The figure for `N#Cc1cc2[nH]c3ccccc3c2[n+](-c2ccc([N+](=O)[O-])cc2)c1N` is 4410 nM. Consider `CCOc1ccc(OCC)c(NC(=O)c2nnn(CC(=O)Nc3cc(C)cc(C)c3)c2N)c1`, for which the AC26 was 6440 nM.

Regarding `Cn1c(SCC(=O)Nc2cccc(F)c2)nc2c([nH]c3ccccc32)c1=O`, the AC26 was 5420 nM. The figure for `COc1ccc(CNC(=O)c2cccc3c(-c4cnn(C)c4)coc23)cc1OC` is 3960 nM; for `COc1ccc(-c2cc3ccccc3oc2=O)cc1NC(=O)c1ccc([N+](=O)[O-])o1` it is 751 nM. Consider `CN1C(=O)c2cccc3c(S(=O)(=O)Nc4ccccn4)ccc1c23`, for which the AC26 was 5030 nM. On to `Clc1ccc(CSc2cnnc3ccccc23)cc1Cl`, for which the AC26 is 13500 nM. Regarding `CC(C)n1c(/C=C/[C@H](O)C[C@H](O)CC(=O)O)c(-c2ccc(F)cc2)c2ccccc21`, the AC26 is 77.8 nM. On to `NS(=O)(=O)c1cc(C(=O)NCCOc2ccccc2)c(Cl)cc1Cl`, for which the AC26 is 5620 nM. As for `COc1ccccc1CCC(=O)Nc1ccc2c(c1)c(=O)n(C)n2-c1cccs1`, the AC26 is 124 nM. Turning to `O=C1NC(=O)C(=Cc2c(Cl)cccc2Cl)C(=O)N1`, the AC26 is 2240 nM. On to `COc1cc2ccccc2cc1C(=O)N/N=C/c1cccs1`, for which the AC26 was 232 nM. The same measure for `Cc1ccc(C(=O)/C=C/c2ccc(Br)cc2)o1`: 16600 nM; for `COc1cc(C)c2sc3ccccc3c(=O)c2c1NCCN(C)C`: 468 nM; for `O=C(c1cn(Cc2ccccc2)nc1-c1ccccc1)N1CCN(c2ccccn2)CC1`: 999 nM. For `COc1cc(OC)c2nc(C)c3c(c2c1)N(c1ccc(O)cc1)CC3`, the AC26 is 1190 nM. With `COc1ccccc1-c1cc(NC=O)c2ncc(-c3cccc(C(=O)N(C)C)c3)n2c1`, the AC26 is 4020 nM. The figure for `CC(=O)Nc1cccc(-c2ccnc3c2CC(C)(C(=O)NCCC(F)(F)F)O3)c1` (stereo not given) is 4320 nM; for `O=C(NCCCn1ccnc1)c1cc(-c2cccs2)on1` it is 3430 nM; for `O=C(NCCCn1ccnc1)c1cc(-c2ccccc2)on1` it is 3170 nM. In the case of `Cn1c(=O)n(C)c2cc(NC(=O)CCl)ccc21`, the AC26 is 2090 nM. Take `CCn1c2ccccc2c2cc(Nc3cc(C)nc4ncnn34)ccc21`: the AC26 was 69.8 nM. The same measure for `COc1cccc(Sc2ccccc2/C=N/NC(N)=O)c1`: 8340 nM. The figure for `COc1cccc(C(=O)Nc2sc3c(c2C#N)CCN(C(C)=O)C3)c1` is 9.19 nM; for `COc1ccc2nc3n(c(=O)c2c1)-c1cc2ccccc2cc1C(=O)NC3Cc1ccccc1` (stereo not given) it is > 19500 nM (inactive); for `Cc1ccc(C(c2cc(Cl)c3cccnc3c2O)N2CCN(C)CC2)cc1` (stereo not given) it is 1280 nM.

As for `O=c1c2c3c(sc2ncn1/N=C/c1ccc([N+](=O)[O-])o1)CCCC3`, the AC26 was 447 nM. For the compound `Cc1ccc(-c2nn3c(C)nnc3c3ccccc23)cc1S(=O)(=O)N(C)CCO`, the AC26 was 4210 nM. Turning to `O=C1c2cccc3cccc(c23)C(=O)N1CC1CCN(CC(O)COCc2ccc3c(c2)OCO3)CC1` (stereo not given), the AC26 is > 19500 nM (inactive). The same measure for `COc1ccc(NC(=O)CSc2c3c(nc4ccccc24)CCCC3)c(OC)c1`: 9240 nM; for `CN(C)CCOc1nc(-c2ccccc2)nc2c1oc1ccccc12`: 2700 nM.

For `CCOc1ccc(NC(=O)C(=O)NCCN2CCN(S(=O)(=O)c3ccc(C)cc3)CC2)cc1`, the AC26 was 4890 nM.

As for `Cc1cccn2c(=O)c3cc(C(=O)NC4CCCC4)c(=N)n(CCc4ccccc4)c3nc12`, the AC26 is 1280 nM. The same measure for `COc1ccc(CCn2c(=N)c(C(=O)NCc3ccco3)cc3c(=O)n4ccccc4nc32)cc1`: 2810 nM; for `O=C(c1cccc(Oc2ccccc2)c1)N1CCN(c2ccccn2)CC1`: 2190 nM; for `O=C(NCCc1ccccc1)c1coc(=O)c(Br)c1`: 1530 nM. `Cc1nnc(NC(=O)CSc2nc(C(C)C)nc3ccccc23)s1`: the AC26 was 971 nM. As to `CC(=O)Nc1sc(C)c(C)c1C(=O)OCC(=O)N(CC(C)C)c1c(N)n(Cc2ccccc2)c(=O)[nH]c1=O`, the AC26 is 4710 nM. Consider `CCN(CC)c1ccc(/C=N/n2nnnc2N)c(O)c1`, for which the AC26 was 3410 nM.

As to `O=C(NCCc1ccccc1)c1cc(-c2ccco2)on1`, the AC26 was 3780 nM. The same measure for `O=C1CC(c2ccccc2F)c2cc3c(cc2N1)CCC3` (stereo not given): 938 nM. The figure for `NC1(C(=O)O)CSSC1` is 221 nM.

`Cc1ccc(/C=N/NC(=O)c2sccc2OCc2ccc(F)cc2)cc1`: the AC26 was 2440 nM. The same measure for `COc1ccc(/C=C2\CC/C(=C\c3ccc(OC)c(OC)c3)C2=O)cc1OC`: 3790 nM. The same measure for `CCN(CC)CCNc1ccc(C)c2sc3ccc(O)cc3c(=O)c12`: 7.74 nM. The figure for `Cn1c(=O)cc(OCCCC(=O)Nc2ccc3c(c2)OCCO3)c2ccccc21` is 3060 nM. On to `N=c1c(C(=O)NCc2ccco2)cc2c(=O)n3ccccc3nc2n1CCc1ccccc1`, for which the AC26 was 707 nM.

Regarding `O=C(NC(=C(Cl)Cl)S(=O)(=O)c1ccc(Cl)cc1)c1ccccc1`, the AC26 was 594 nM.
